Reference: patent US10028992B2, “Methods of treating muscular dystrophy” (BOARD OF REGENTS OF THE NEVADA SYSTEM OF HIGHER EDUCATION …, priority 2012, dated 2018)
Like-named read-outs stand apart in the source and are kept apart here.

Tested on: α7 integrin promoter
Assay: muscle cell-based assay: α7βgal+/− myoblasts/myotubes, LacZ reporter, β-galactosidase cleavage of FDG
Parameters: species or system mouse; Results in α7+/− β-galactosidase assay: scale not given here
Details: for EC50 / AC50: Mus musculus; for EC50: given as log AC50 (negative values), read-out: Fit LogAC50 (converted); for Fit Curve Class: key not given; for Results in α7+/− β-galactosidase assay: Myoblasts; for AC50: log of AC50, given with negative sign, unit of AC50 not given, read-out: Fit Log AC50 (converted)
Method in brief: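 Fluorescein generated from FDG by β-galactosidase reports α7 integrin promoter activity in differentiated myoblasts from α7+/− LacZ knock-in pups. Screening hits then went to dose-response, western blotting and a myostatin counterscreen.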

[1] = curve fit, activity at zero concentration
[2] = Table 12, fitted activity at zero concentration
[3] = Table 12 Compound data, concentration-response curve fit

COc1cc([N+](=O)[O-])cc(/C=N/NC(=O)C(O)(c2ccccc2)c2ccccc2)c1O
Results in a α7+/− β-galactosidase assay, Myotubes, 0.5 uM: 0.1119
Results in a α7+/− β-galactosidase assay, Myotubes, 1 uM: −0.01127
Results in a α7+/− β-galactosidase assay, Myotubes, 5 uM: −0.4224
Results in a α7+/− β-galactosidase assay, Myotubes, 10 uM: −0.4434
Results in a α7+/− β-galactosidase assay, Myotubes, 20 uM: −0.2622
Results in a α7+/− β-galactosidase assay, Myotubes, 40 uM: −0.3132

C=CCc1c(C)nc(-c2ccccc2)nc1N/N=C/c1ccccc1 [Compound 213]
EC50: 11.2 µM
Score (Table 12 compound data): 42
Fit Curve Class (curve class number): 2.1
Fit HillSlope (curve fit): 1.2876
Fit Zero Activity [%] [1]: −1.0122%

CCNC(=O)C(=O)Nc1cc2c3c(c1)CCN3C(=O)CC2 [drawing 690]
Results in α7+/− β-galactosidase assay (0.5 uM): 0.05836
Results in α7+/− β-galactosidase assay (1 uM): 0.1657
Results in α7+/− β-galactosidase assay (5 uM): 0.2771
Results in α7+/− β-galactosidase assay (10 uM): 0.06388
Results in α7+/− β-galactosidase assay (20 uM): 0.05069
Results in α7+/− β-galactosidase assay (40 uM): 0.005609

Cc1nc(O)nc(O)c1S(=O)(=O)Nc1ccc(F)cc1Cl [drawing 545]
Results in α7+/− β-galactosidase assay (0.5 uM): 0.03945
Results in α7+/− β-galactosidase assay (1 uM): 0.1557
Results in α7+/− β-galactosidase assay (5 uM): 0.0782
Results in α7+/− β-galactosidase assay (10 uM): −0.00196
Results in α7+/− β-galactosidase assay (20 uM): 0.02136
Results in α7+/− β-galactosidase assay (40 uM): −0.01244

COc1cc(C=O)ccc1OCC(=O)Nc1ccc2c(c1)OCO2 [drawing 633]
Results in α7+/− β-galactosidase assay (0.5 uM): 0.04105
Results in α7+/− β-galactosidase assay (1 uM): −0.1736
Results in α7+/− β-galactosidase assay (5 uM): 0.4398
Results in α7+/− β-galactosidase assay (10 uM): 0.09536
Results in α7+/− β-galactosidase assay (20 uM): −0.06607
Results in α7+/− β-galactosidase assay (40 uM): −0.1156

Cc1ccc(NC(=O)C2CCCCC2C(=O)O)cc1C (stereo not shown) [Compound 114]
AC50 (Table 12): 11.2 µM
Fit HillSlope (Table 12, curve fit): 4.5045
Fit Zero Activity [%] [2]: −3.8223%
Fit Curve Class (Table 12): 2.1
Score [3]: 43

COc1c(Cl)cc(/C=C2\C(=O)Nc3ccccc32)cc1Cl [drawing 505]
Results in a α7+/− β-galactosidase assay, Myotubes, 0.5 uM (Myotubes, compound at 0.5 uM): −0.1548
Results in a α7+/− β-galactosidase assay, Myotubes, 1 uM (Myotubes, compound at 1 uM): −0.1313
Results in a α7+/− β-galactosidase assay, Myotubes, 5 uM (Myotubes, compound at 5 uM): −0.4088
Results in a α7+/− β-galactosidase assay, Myotubes, 10 uM (Myotubes, compound at 10 uM): −0.5935
Results in a α7+/− β-galactosidase assay, Myotubes, 20 uM (Myotubes, compound at 20 uM): −0.3163
Results in a α7+/− β-galactosidase assay, Myotubes, 40 uM (Myotubes, compound at 40 uM): −0.3432

CC1Cc2ccccc2N1C(=O)CSc1nnc(N)s1 (stereo not shown) [drawing 631]
Results in α7+/− β-galactosidase assay (0.5 uM): 0.1058
Results in α7+/− β-galactosidase assay (1 uM): −0.02327
Results in α7+/− β-galactosidase assay (5 uM): 0.003792
Results in α7+/− β-galactosidase assay (10 uM): 0.1155
Results in α7+/− β-galactosidase assay (20 uM): −0.02505
Results in α7+/− β-galactosidase assay (40 uM): −0.07326

CC1=C(C#N)C(=O)N(C)C(=O)/C1=C\NNc1ccc(F)cc1 [Compound 203]
EC50: 7.08 µM
Score (Table 12 compound data): 42
Fit Curve Class (curve class number): 2.1
Fit HillSlope (curve fit): 1.4781
Fit Zero Activity [%] [1]: −47.2995%

O=c1c2cc(-c3ccccc3)sc2nc2n1N=C(c1ccccc1)CS2 [drawing 485]
Results in a α7+/− β-galactosidase assay, Myotubes, 0.5 uM (Myotubes, compound at 0.5 uM): 0.02668
Results in a α7+/− β-galactosidase assay, Myotubes, 1 uM (Myotubes, compound at 1 uM): −0.1163
Results in a α7+/− β-galactosidase assay, Myotubes, 5 uM (Myotubes, compound at 5 uM): 0.0299
Results in a α7+/− β-galactosidase assay, Myotubes, 10 uM (Myotubes, compound at 10 uM): −0.3812
Results in a α7+/− β-galactosidase assay, Myotubes, 20 uM (Myotubes, compound at 20 uM): −0.1377
Results in a α7+/− β-galactosidase assay, Myotubes, 40 uM (Myotubes, compound at 40 uM): −0.1734

Cc1ccc2c(c1)/C(=C/c1ccccc1F)C(=O)N2 [drawing 459]
Results in a α7+/− β-galactosidase assay, Myotubes, 0.5 uM (Myotubes, compound at 0.5 uM): −0.02905
Results in a α7+/− β-galactosidase assay, Myotubes, 1 uM (Myotubes, compound at 1 uM): −0.08264
Results in a α7+/− β-galactosidase assay, Myotubes, 5 uM (Myotubes, compound at 5 uM): −0.2089
Results in a α7+/− β-galactosidase assay, Myotubes, 10 uM (Myotubes, compound at 10 uM): 0.1057
Results in a α7+/− β-galactosidase assay, Myotubes, 20 uM (Myotubes, compound at 20 uM): −0.3626
Results in a α7+/− β-galactosidase assay, Myotubes, 40 uM (Myotubes, compound at 40 uM): −0.3722

COc1ccc(C(=O)Cn2nnc(-c3ccccc3NC(=O)c3ccco3)n2)cc1 [drawing 673]
Results in α7+/− β-galactosidase assay (0.5 uM): 0.4054
Results in α7+/− β-galactosidase assay (1 uM): 0.1958
Results in α7+/− β-galactosidase assay (5 uM): −0.2666
Results in α7+/− β-galactosidase assay (10 uM): −0.3483
Results in α7+/− β-galactosidase assay (20 uM): −0.6016
Results in α7+/− β-galactosidase assay (40 uM): −0.7762

CNc1cc([N+](=O)[O-])ccc1OCc1ccccc1 [Compound 79]
AC50 (Table 12): 4.47 µM
Fit HillSlope (Table 12, curve fit): 1.3437
Fit Zero Activity [%] [2]: −0.3646%
Fit Curve Class (Table 12): 2.1
Score [3]: 44

O=C(COc1cc2oc(=O)c3c(c2cc1Cl)CCCC3)NC[C@H]1CC[C@H](C(=O)O)CC1 [Compound 95]
AC50 (Table 12): 7.08 µM
Fit HillSlope (Table 12, curve fit): 1.01
Fit Zero Activity [%] [2]: −14.8966%
Fit Curve Class (Table 12): 2.2
Score [3]: 43
